Results taken from patent US4550170A, “6-Phenyl-2,3,5,6-tetrahydroimidazo-[2,1-b]-thiazole derivatives” (Institut Organicheskoi Khimii Akademii Nauk Ukrainskoi SSR, priority 1984, dated 1985).
Structures can show the parent of a compound that is named as a salt. Where two headings read alike, the source gives them in different places.

What was measured:
in vivo [1] = conditions: mouse, sc
[2] = tested on: delayed-type hypersensitivity reaction; assay: delayed-type hypersensitivity reaction to rat's thymocytes in mice (popliteal lymph nodes); type: in vivo; conditions: for effect on the development of the delayed-type hypersensitivity reactions: Table 3 (mice and guinea pigs)
[3] = tested on: delayed-type hypersensitivity reaction; assay: delayed-type hypersensitivity reaction to 2,4-dinitrochlorobenzene in guinea pigs; type: in vivo
[4] = tested on: IgE antibodies in respiratory organs
Method: The local production of IgE-antibodies in trachea and lungs of rats of the lines WAY, August with a mass of 250-300 g was induced by means of a successive (with the interval of 40 minutes) dropping a 0.1% solution of histamine and ambrosia allergen (10,000 PNU/ml) into both nasal passages. […] One day after the administration of the allergen IgE-antibodies were determined in homogenates of trachea and lungs prepared at the rate of 0.1 ml of a physiological solution per 10 mg of the tissue by the method of indirect degranulation of obese cells.

[5] = physical properties of the compounds; type: physicochemical
human tonsillocytes [6] = assay: natural cytotoxicity (natural killers) of human tonsillocytes, 51Cr release; type: cell-based; conditions: for Yield of 51Cr from target cells, natural cytotoxicity, average value: (III) significant P below 0.05
Source text: (§1) The cytolytic effect of tonsillocytes was studied by the radioisotope method using Cr^51. On doing so, the deterioration of target cells (chicken's erythrocytes) by tonsil lymphocytes was regarded as spontaneous cytolysis, while the destruction of the target cells loaded, in addition to the isotopic tracer, with homologous antibodies in the sublytic dose was considered as antibody-dependent cytolysis. […] Afterwards they were twice washed by means of Medium 199 using centrifugation (105 g, 10 minutes). […] The degree of destruction of the target cells was determined radiometrically by the outcome of Cr^51 into the liquid phase.

immune system = conditions: prior art; cited from earlier work
splenocytes = assay: effect on cyclic nucleotides (c-AMP, c-GMP) and phosphodiesterase of c-AMP; type: cell-based
[7] = tested on: allergic reaction of the delayed type in mice; assay: delayed-type (contact) hypersensitivity reaction to dinitrochlorobenzene, ear thickness in mice; type: in vivo, CBA mice; conditions: for Ear thickness, Control, Average value / Ear thickness, Control, Range of fluctuations: control (right) ear; for Ear thickness, Experiment, Average value / Ear thickness, Experiment, Range of fluctuations: test (left) ear; for dose sufficient for inhibition of the contact hypersensitivity, lower than that of levamizole: ratio to levamizole
[8] = tested on: Staphylococcus aureus, Proteum, Bacillus pyocyanes; assay: antibacterial activity in vitro, serial dilutions; type: cell-based; conditions: relative to compound (II)
Method: In the experiments in vitro the antibacterial activity of the compounds of the present invention was studied. To this end, serial dilutions of compounds (II) and (III) with a concentration of from 1% to 0.00001% were prepared and 0.1 ml of a microbal suspension was added thereto (Staphylococcus aureus, Proteum, Bacillus pyocyanes). The microbal load for staphylococcus was about 1×10^5 cells/ml, for Proteum and Bacillus pyocyanes -1×10^4 c cells/ml. […] The bacteria were incubated along with the compounds according to the present invention at the temperature of 37° C. […] Inoculations were effected by spreading 0.1 ml of a suspension of bacteria in a corresponding dilution of the compounds over the surface of an agar dish using a glass spatula.

human tonsillocytes [9] = assay: antibody-dependent cytotoxicity of human tonsillocytes, 51Cr release; type: cell-based; conditions: for minimal effective concentration: Homo sapiens, read-out: concentration stimulating the antibody-dependent cytolytic activity
Source text: as §1, with “On this basis, the effect of one of the lest toxic compound (III) out of those of the present invention was studied for the antibody-dependent cytolytic activity of cells. […] The cytolytic” for “The cytolytic”

[10] = prior art, hydrochloride, cited from earlier work
[11] = tested on: virus of vesicular stomatitis; type: cell-based
in vivo [12] = conditions: rabbit
in vivo [13] = conditions: rat, rats
[14] = 100 μg/ml, negative = test value exceeded the control
[15] = 100 μg/ml, certainty: (II), (III) below 0.05, (I), levamizole above 0.05
[16] = 500 μg/ml, certainty: all below 0.05
[17] = second levamizole line, printed 2.5 mg/kg
[18] = 1 μg/ml, (III) significant P below 0.05
[19] = 10 μg/ml, (III) significant P below 0.05
[20] = 100 μg/ml, levamizole significant P below 0.05

## COC(=O)C[N+]1=C2SCCN2CC1c1ccccc1 (centres unmarked) [Compound (I), 2,3,5,6-tetrahydro-6-phenyl-7-methoxycarbonylmethylimidazo-[2,1-b]-thiazolium bromide]
In vivo [1]
  LD50: 262 mg/kg
[2]; [14]
  Difference in masses of popliteal lymph nodes in the control and test limb, Average value: -1.1 ± 0.08 mg
[2]; 500 μg/ml
  Difference in masses of popliteal lymph nodes in the control and test limb, Average value: +1.3 ± 0.2 mg
[3]; [14]
  Difference in temperature of the pad surfaces, Average value: -1.5 ± 0.27 °C
  Difference in thickness of control and test talipes, Average value: -0.6 ± 0.062 mm
[4]; [15]
  Percent of degranulated mastocytes, Lungs: 19.4 ± 1.8%
  Percent of degranulated mastocytes, Trachea: 17.8 ± 1.3%
[4]; [16]
  Percent of degranulated mastocytes, Lungs: 9.3 ± 0.8%
  Percent of degranulated mastocytes, Trachea: 7.0 ± 0.2%
[5]
  solubility in acetone: sparingly soluble
  solubility in benzene: sparingly soluble
  solubility in lower alcohols: soluble
  solubility in water: soluble

## c1ccc([C@H]2CN3CCSC3=N2)cc1 [levamizole, L-(-)-2,3,5,6-tetrahydro-6-phenylimidazo-[2,1-b]-thiazole hydrochloride, reference compound]
Human tonsillocytes [6]; 1 μg/ml
  Yield of 51Cr from target cells, natural cytotoxicity, range of fluctuations: 3.0-41.0%
  Yield of 51Cr from target cells, natural cytotoxicity, average value: 16.2%
Human tonsillocytes [6]; 10 μg/ml
  Yield of 51Cr from target cells, natural cytotoxicity, range of fluctuations: 5.0-53.0%
  Yield of 51Cr from target cells, natural cytotoxicity, average value: 18.4%
Human tonsillocytes [6]; 100 μg/ml
  Yield of 51Cr from target cells, natural cytotoxicity, range of fluctuations: 5.0-49.0%
  Yield of 51Cr from target cells, natural cytotoxicity, average value: 20.5%
Human tonsillocytes [6]; levamizole
  activity of natural killers of tonsil cells: not noticeably changed
Immune system
  effect in respect of various immunological responses: stimulating effect in respect of various immunological responses
splenocytes
  concentrations of c-AMP and c-GMP: reciprocal variations of concentrations of c-AMP and c-GMP
[7]; 2.5 mg/kg per os
  Ear thickness, Control, Average value: 162.3 μm
  Ear thickness, Control, Range of fluctuations: 130-200 μm
  Ear thickness, Experiment, Average value: 210.0 μm
  Ear thickness, Experiment, Range of fluctuations: 160-280 μm
[7]; per os
  dose inhibiting the development of the contact hypersensitivity: 25 mg/kg
[7]; [17]
  Ear thickness, Control, Average value: 179.2 μm
  Ear thickness, Control, Range of fluctuations: 160-190 μm
  Ear thickness, Experiment, Average value: 179.2 μm
  Ear thickness, Experiment, Range of fluctuations: 170-190 μm
[2]; 100 μg/ml
  effect on the development of the delayed-type hypersensitivity reactions: surely stimulates
[2]; [14]
  Difference in masses of popliteal lymph nodes in the control and test limb, Average value: -0.9 ± 0.13 mg
[2]; 500 μg/ml
  Difference in masses of popliteal lymph nodes in the control and test limb, Average value: +1.0 ± 0.13 mg
[2]; 1,000 μg/ml
  Difference in masses of popliteal lymph nodes in the control and test limb, Average value: +1.2 ± 0.12 mg
[2]; 500 and 1,000 μg/ml
  effect on the development of the delayed-type hypersensitivity reactions: effectively inhinits
[3]; [14]
  Difference in temperature of the pad surfaces, Average value: -1.3 ± 0.06 °C
  Difference in thickness of control and test talipes, Average value: -0.75 ± 0.08 mm
[3]; 1,000 μg/ml
  Difference in temperature of the pad surfaces, Average value: +1.1 ± 0.11 °C
  Difference in thickness of control and test talipes, Average value: +0.51 ± 0.064 mm
[8]
  antibacterial activity lower by a factor of: 2
Human tonsillocytes [9]; 1 μg/ml
  Yield of 51Cr from target cells, antibody dependent cytotoxicity, range of fluctuations: 1.0-32.0%
Human tonsillocytes [9]; [18]
  Yield of 51Cr from target cells, antibody dependent cytotoxicity, average: 14.0%
Human tonsillocytes [9]; 10 μg/ml
  Yield of 51Cr from target cells, antibody dependent cytotoxicity, range of fluctuations: 1.0-36.0%
Human tonsillocytes [9]; [19]
  Yield of 51Cr from target cells, antibody dependent cytotoxicity, average: 14.2%
Human tonsillocytes [9]; 100 μg/ml
  Yield of 51Cr from target cells, antibody dependent cytotoxicity, range of fluctuations: 8.0-39.0%
Human tonsillocytes [9]; [20]
  Yield of 51Cr from target cells, antibody dependent cytotoxicity, average: 22.8%
Human tonsillocytes [9]
  minimal effective concentration: 100 µg/mL
[4]; [15]
  Percent of degranulated mastocytes, Lungs: 18.1 ± 1.9%
  Percent of degranulated mastocytes, Trachea: 17.3 ± 1.8%
[4]; [16]
  Percent of degranulated mastocytes, Lungs: 6.1 ± 1.1%
  Percent of degranulated mastocytes, Trachea: 7.4 ± 0.2%
[4]; rat, in vivo
  concentration inhibiting the formation of the IgE-antibodies in the respiratory organs: 500 µg/mL
[10]
  toxicity and side effects: high toxicity and a high frequency of the observed side effects
[10]; listed as Levamizole
  toxicity and side effects: toxic and has diverse side effects
[11]; 1 μg/ml
  Degree of inhibition of the virus reproduction: 0 times
[11]; 10 μg/ml
  Degree of inhibition of the virus reproduction: 10 times

## NC(=O)C[N+]1=C2SCCN2CC1c1ccccc1 (centres unmarked) [Compound (III), 2,3,5,6-tetrahydro-6-phenyl-7-carbamoylmethylimidazo-[2,1-b]-thiazolium bromide]
Human tonsillocytes [6]; 1 μg/ml
  Yield of 51Cr from target cells, natural cytotoxicity, range of fluctuations: 7.0-60.0%
  Yield of 51Cr from target cells, natural cytotoxicity, average value: 30.6%
Human tonsillocytes [6]; 10 μg/ml
  Yield of 51Cr from target cells, natural cytotoxicity, range of fluctuations: 7.0-42.0%
  Yield of 51Cr from target cells, natural cytotoxicity, average value: 28.8%
Human tonsillocytes [6]; 100 μg/ml
  Yield of 51Cr from target cells, natural cytotoxicity, range of fluctuations: 1.0-40.0%
  Yield of 51Cr from target cells, natural cytotoxicity, average value: 24.8%
In vivo [1]
  LD50: 1020 mg/kg
[7]; 2.5 mg/kg per os
  Ear thickness, Control, Average value: 176.7 μm
  Ear thickness, Control, Range of fluctuations: 110-210 μm
  Ear thickness, Experiment, Average value: 184.4 μm
  Ear thickness, Experiment, Range of fluctuations: 110-220 μm
[7]; 25 mg/kg per os
  Ear thickness, Control, Average value: 184.4 μm
  Ear thickness, Control, Range of fluctuations: 170-200 μm
  Ear thickness, Experiment, Average value: 190.0 μm
  Ear thickness, Experiment, Range of fluctuations: 170-200 μm
[7]
  dose sufficient for inhibition of the contact hypersensitivity, lower than that of levamizole: 10 times
In vivo [12]; po
  LD50: 3330 mg/kg
In vivo [12]; sc
  LD50: 317 mg/kg
In vivo [13]; po, LD50 upon peroral administration, female
  LD50: 3500 mg/kg
In vivo [13]; po, LD50 upon peroral administration, male
  LD50: 5750 mg/kg
In vivo [13]; sc, LD50 upon subcutaneous injection, female
  LD50: 1420 mg/kg
In vivo [13]; sc, LD50 upon subcutaneous injection, male
  LD50: 2580 mg/kg
[8]
  antibacterial activity lower by a factor of: 2
Human tonsillocytes [9]; 1 μg/ml
  Yield of 51Cr from target cells, antibody dependent cytotoxicity, range of fluctuations: 10.0-57.0%
Human tonsillocytes [9]; [18]
  Yield of 51Cr from target cells, antibody dependent cytotoxicity, average: 23.2%
Human tonsillocytes [9]; 10 μg/ml
  Yield of 51Cr from target cells, antibody dependent cytotoxicity, range of fluctuations: 13.0-36.0%
Human tonsillocytes [9]; [19]
  Yield of 51Cr from target cells, antibody dependent cytotoxicity, average: 22.6%
Human tonsillocytes [9]; 100 μg/ml
  Yield of 51Cr from target cells, antibody dependent cytotoxicity, range of fluctuations: 4.0-40.0%
Human tonsillocytes [9]; [20]
  Yield of 51Cr from target cells, antibody dependent cytotoxicity, average: 19.1%
Human tonsillocytes [9]
  minimal effective concentration: 1 to 10 µg/mL
Human tonsillocytes [9]; ratio to levamizole
  stimulating concentration lower as compared to levamizole, antibody-dependent cytolytic activity: 10-100 times
[4]; [15]
  Percent of degranulated mastocytes, Lungs: 10.6 ± 3.9%
  Percent of degranulated mastocytes, Trachea: 9.1 ± 2.1%
[4]; [16]
  Percent of degranulated mastocytes, Lungs: 6.1 ± 1.1%
  Percent of degranulated mastocytes, Trachea: 7.1 ± 1.7%
[11]; 1 μg/ml
  Degree of inhibition of the virus reproduction: 10 times
[11]; 10 μg/ml
  Degree of inhibition of the virus reproduction: 100 times
[5]
  solubility in acetone: only slightly soluble
  solubility in benzene: only slightly soluble
  solubility in lower alcohols: well soluble
  solubility in water: well soluble

## CCCCCCCCCCOC(=O)C[N+]1=C2SCCN2CC1c1ccccc1 (centres unmarked) [Compound (II), 2,3,5,6-tetrahydro-6-phenyl-7-decyloxycarbonylmethylimidazo-[2,1-b]-thiazolium bromide]
In vivo [1]
  LD50: 167 mg/kg
[7]; 2.5 mg/kg per os
  Ear thickness, Control, Average value: 202.2 μm
  Ear thickness, Control, Range of fluctuations: 150-250 μm
  Ear thickness, Experiment, Average value: 222.8 μm
  Ear thickness, Experiment, Range of fluctuations: 175-300 μm
[7]; 25 mg/kg per os
  Ear thickness, Control, Average value: 178.9 μm
  Ear thickness, Control, Range of fluctuations: 150-240 μm
  Ear thickness, Experiment, Average value: 184.4 μm
  Ear thickness, Experiment, Range of fluctuations: 170-240 μm
[7]
  dose sufficient for inhibition of the contact hypersensitivity, lower than that of levamizole: 10 times
[2]; 1,000 μg/ml
  Difference in masses of popliteal lymph nodes in the control and test limb, Average value: +1.3 ± 0.29 mg
[3]; 1,000 μg/ml
  Difference in temperature of the pad surfaces, Average value: +1.2 ± 0.16 °C
  Difference in thickness of control and test talipes, Average value: +0.63 ± 0.09 mm
[4]; [15]
  Percent of degranulated mastocytes, Lungs: 6.8 ± 0.9%
  Percent of degranulated mastocytes, Trachea: 15.0 ± 1.8%
[4]; [16]
  Percent of degranulated mastocytes, Lungs: 6.5 ± 0.9%
  Percent of degranulated mastocytes, Trachea: 3.5 ± 1.2%
[11]; 1 μg/ml
  Degree of inhibition of the virus reproduction: 10 times
[11]; 10 μg/ml
  Degree of inhibition of the virus reproduction: 100 times
[5]
  solubility in lower alcohols: soluble
  solubility in water: soluble
